These results are taken from ChEMBL document CHEMBL5608141, “Identification of compartment-specific drug sensitivities in CRC organoid-stroma co-cultures” (2024).

What all share (assay type): functional, Homo sapiens
What all share (parameters): dose or concentration left out as unconfirmed

The subject of experiment [1] is Colon cancer organoid. As to the kind of experiment: Identification of compartment-specific drug sensitivities in O06 CRC organoid-stroma F06 CAF co-cultures. Organoid is transduced with Lucferase2-P2A-EGFP lentivirus, fibroblast with Renilla-dsRed lentivirus. Dual-Glo Luciferase assay is used to report viability data.
Experiment [2] relates to Colon cancer organoid. As to the kind of experiment: Identification of compartment-specific drug sensitivities in O20 CRC organoid-stroma F20 CAF co-cultures. Organoid is transduced with Lucferase2-P2A-EGFP lentivirus, fibroblast with Renilla-dsRed lentivirus. Dual-Glo Luciferase assay is used to report viability data.
For experiment [3], the system named is Colon cancer organoid. Put plainly: Identification of compartment-specific drug sensitivities in O14 CRC organoid-stroma F14 CAF co-cultures. Organoid is transduced with Lucferase2-P2A-EGFP lentivirus, fibroblast with Renilla-dsRed lentivirus. Dual-Glo Luciferase assay is used to report viability data.
Setting [4] is: Transduced with Lucferase2-P2A-EGFP lentivirus.
The mark [5] stands for this setting: Transduced with Renilla-dsRed lentivirus.

SMILES strings stand for the structures.

As to `COc1ccccc1S(=O)(=O)Nc1ccc2c(c1)CN(C)C(=O)N2`, the “Cell Viability” value in the experiment with Colon cancer organoid [1] (setting [4]) was determined as 75.1061%; in the experiment with Colon cancer organoid [1] (setting [5]) it was 112.248%; in the experiment with Colon cancer organoid [2] (setting [4]), 112.453%; in the experiment on Colon cancer organoid [2] (setting [5]), 99.8859%; in the experiment on Colon cancer organoid [3] (setting [4]), 127.49%; with Colon cancer organoid [3] (setting [5]) it was 84.3735%.

`COc1cc2c(NC3CCN(C(C)C)CC3)nc(N3CCC(F)(F)CC3)nc2cc1OCCCN1CCCC1`: the “Cell Viability” value in the experiment on Colon cancer organoid [1] (setting [4]) stood at 88.0521%; with Colon cancer organoid [1] (setting [5]), 104.162%; with Colon cancer organoid [2] (setting [4]), 136.596%; in the experiment on Colon cancer organoid [2] (setting [5]), 132.743%; in the experiment on Colon cancer organoid [3] (setting [4]) it was 78.7749%; in the experiment on Colon cancer organoid [3] (setting [5]) it was 75.7418%.

With `Cl.O=C(O)c1cc(-c2ccc(C3CCNCC3)cc2)c2ccc(-c3ccc(C(F)(F)F)cc3)cc2c1`, the “Cell Viability” value in the experiment with Colon cancer organoid [1] (setting [4]) was 107.895%; with Colon cancer organoid [1] (setting [5]) it was 117.47%; with Colon cancer organoid [2] (setting [4]) it was 106.654%; in the experiment with Colon cancer organoid [2] (setting [5]), 101.384%; in the experiment on Colon cancer organoid [3] (setting [4]) it was 158.935%; with Colon cancer organoid [3] (setting [5]) it was 99.9399%.

As to `CN(C)C(=O)N1CC[C@H](NC2=Nc3cc(F)ccc3N(CC(F)F)c3ccc(Cl)cc32)C1`, the “Cell Viability” value with Colon cancer organoid [1] (setting [4]) turned out to be 22.5333%; in the experiment on Colon cancer organoid [1] (setting [5]), 79.8107%; in the experiment with Colon cancer organoid [2] (setting [4]) it was 71.357%; in the experiment on Colon cancer organoid [2] (setting [5]) it was 98.2431%; in the experiment on Colon cancer organoid [3] (setting [4]), 119.43%; with Colon cancer organoid [3] (setting [5]) it was 91.6025%.

For `O=C1NC(c2ccccn2)Sc2ccccc21` (configuration not stated) [BTZO-4], the “Cell Viability” value in the experiment with Colon cancer organoid [1] (setting [4]) is reported as 80.8326%; in the experiment on Colon cancer organoid [1] (setting [5]), 70.0316%; with Colon cancer organoid [2] (setting [4]), 109.35%; with Colon cancer organoid [2] (setting [5]), 85.8309%; in the experiment on Colon cancer organoid [3] (setting [4]) it was 106.577%; in the experiment on Colon cancer organoid [3] (setting [5]) it was 104.892%.

Turning to `CC(=O)Nc1ncc(CN2CCC[C@H](Cc3cc(C)nc(C)c3)C2)s1` [JNJ-65355394], the “Cell Viability” value with Colon cancer organoid [1] (setting [4]) worked out at 116.935%; in the experiment on Colon cancer organoid [1] (setting [5]) it was 172.928%; with Colon cancer organoid [2] (setting [4]), 88.5022%; in the experiment on Colon cancer organoid [2] (setting [5]), 103.797%; with Colon cancer organoid [3] (setting [4]), 108.182%; in the experiment on Colon cancer organoid [3] (setting [5]), 61.6526%.

Consider `CC(=O)c1cc(-c2ccccc2OCC2CC2)c2ncccn12`, for which the “Cell Viability” value was found to be 107.249% with Colon cancer organoid [1] (setting [4]); 181.775% in the experiment on Colon cancer organoid [1] (setting [5]); 91.2961% with Colon cancer organoid [2] (setting [4]); 121.201% in the experiment with Colon cancer organoid [2] (setting [5]); 107.478% with Colon cancer organoid [3] (setting [4]); 95.946% in the experiment with Colon cancer organoid [3] (setting [5]).
